Measurements reported in patent publication EP0018189B1 (priority 1979, dated 1980).

Tests used:
[1] = system: poliomyelitis vaccines (Types 1, 2 and 3): Type 1; design: species or system guinea pigs; conditions: guinea pig, in vivo
[2] = system: poliomyelitis vaccines (Types 1, 2 and 3): Type 2; type: in vivo; conditions: guinea pigs
[3] = system: poliomyelitis vaccines (Types 1, 2 and 3): Type 3; type: in vivo; conditions: guinea pigs
[4] = undiluted, 1/10 and 1/100 dilutions, determined by comparison of ED50

Structure (SMILES): CCCCCCCCCCCCCCCCCCOC(=O)[C@@H](N)Cc1ccc(O)cc1 [octadecyl tyrosine]
- Potency Relative to Unadsorbed Vaccine, Type 1 [1]: 13.8
- factor more potent than the vaccine containing aluminum phosphate, type 1 [1]: 5.2
- factor more potent than the vaccine containing aluminum phosphate, type 2 [2]: 1.9
- Potency Relative to Unadsorbed Vaccine, Type 2 [2, 4]: 3.2
- factor more potent than the vaccine containing aluminum phosphate, type 3 [3]: 1.4
- Potency Relative to Unadsorbed Vaccine, Type 3 [3, 4]: 8.5
